From ChEMBL document CHEMBL3769371, “1-[(2E)-3-Phenylprop-2-enoyl]-1H-benzimidazoles as anticancer agents: synthesis, crystal structure analysis and binding studies of the most potent anticancer molecule with serum albumin” (Medchemcomm, 2015)

Key:
[1] = tested on: U-251; assay: Cytotoxicity against human U251 cells assessed as cell growth at 10^-5 M after 48 hrs by SRB assay; type: functional; conditions: U-251, 48 h, read-out: Activity
[2] = tested on: SK-MEL-28; assay: Cytotoxicity against human SK-MEL-28 cells assessed as cell growth at 10^-5 M after 48 hrs by SRB assay; type: functional; conditions: SK-MEL-28, 48 h, read-out: Activity
[3] = Antiproliferative activity against human HCC2998 cells at 10'5 M; type: functional, HCC 2998
[4] = Cytotoxicity against human SF295 cells assessed as cell growth at 10^-5 M after 48 hrs by SRB assay; type: functional; conditions: SF-295, 48 h, read-out: Activity
[5] = tested on: SN12C; assay: Cytotoxicity against human SN12C cells after 48 hrs by SRB assay; type: functional
[6] = Cytotoxicity against human SNB19 cells assessed as cell growth at 10^-5 M after 48 hrs by SRB assay; type: functional; conditions: SNB-19, 48 h, read-out: Activity
[7] = molecular target: T1, Albumin (Homo sapiens, UniProt P02768); assay: Binding affinity to human serum albumin at 0.25 to 2 uM at 303 K by fluorescence microscopic analysis in the presence of phenylbutazone; type: ADME; conditions: isolated protein
[8] = Cytotoxicity against human SF268 cells after 48 hrs by SRB assay; type: functional; conditions: SF-268, 48 h
[9] = Cytotoxicity against human SF539 cells assessed as cell growth at 10^-5 M after 48 hrs by SRB assay; type: functional; conditions: SF-539, 48 h, read-out: Activity
[10] = Cytotoxicity against human Caki1 cells after 48 hrs by SRB assay; type: functional; conditions: CAKI-1, 48 h
[11] = tested on: MCF7; assay: Antiproliferative activity against human MCF7 cells at 10'5 M; type: functional
[12] = Cytotoxicity against human MOLT4 cells assessed as cell growth at 10^-5 M after 48 hrs by SRB assay; type: functional; conditions: MOLT-4, 48 h, read-out: Activity
[13] = tested on: NCI-H522; assay: Cytotoxicity against human NCI-H522 cells after 48 hrs by SRB assay; type: functional; conditions: NCI-H522, 48 h
[14] = Cytotoxicity against human Hs 578T cells after 48 hrs by SRB assay; type: functional
[15] = tested on: NCI-H322M; assay: Cytotoxicity against human NCI-H322M cells assessed as cell growth at 10^-5 M after 48 hrs by SRB assay; type: functional; conditions: read-out: Activity
[16] = Antiproliferative activity against human Hs 578T cells at 10'5 M; type: functional
[17] = Cytotoxicity against human UACC257 cells after 48 hrs by SRB assay; type: functional; conditions: UACC-257, 48 h
[18] = molecular target: T1, Albumin; assay: Binding affinity to human serum albumin at 0.25 to 2 uM at 308 K by fluorescence microscopic analysis; type: ADME; conditions: isolated protein
[19] = tested on: Malme-3M; assay: Cytotoxicity against human MALME-3M cells assessed as cell growth at 10^-5 M after 48 hrs by SRB assay; type: functional; conditions: read-out: Activity
[20] = molecular target: T1, Albumin; assay: Binding affinity to human serum albumin at 0.25 to 2 uM at 298 K by fluorescence microscopic analysis; type: ADME; conditions: isolated protein
[21] = tested on: MDA-MB-468; assay: Cytotoxicity against human MDA-MB-468 cells after 48 hrs by SRB assay; type: functional; conditions: MDA-MB-468, 48 h
[22] = molecular target: T1, Albumin; assay: Binding affinity to human serum albumin assessed Stern-Volmer quenching constant at 0.25 to 2 uM at 288 K by fluorescence microscopic analysis; type: ADME; conditions: isolated protein
[23] = tested on: M14; assay: Cytotoxicity against human M14 cells after 48 hrs by SRB assay; type: functional; conditions: M14, 48 h
[24] = Antiproliferative activity against human TK10 cells at 10'5 M; type: functional, TK-10
[25] = Cytotoxicity against human HOP92 cells after 48 hrs by SRB assay; type: functional; conditions: HOP-92, 48 h
[26] = molecular target: T1, Albumin; assay: Binding affinity to human serum albumin at 0.25 to 2 uM at 303 K by fluorescence microscopic analysis in the absence of site probes; type: ADME; conditions: isolated protein
[27] = tested on: SN12C; assay: Cytotoxicity against human SN12C cells assessed as cell growth at 10^-5 M after 48 hrs by SRB assay; type: functional; conditions: read-out: Activity
[28] = tested on: A549; assay: Cytotoxicity against human A549 cells after 48 hrs by SRB assay; type: functional; conditions: A549, 48 h
[29] = Cytotoxicity against human HCT116 cells assessed as cell growth at 10^-5 M after 48 hrs by SRB assay; type: functional; conditions: HCT-116, 48 h, read-out: Activity
[30] = tested on: SK-MEL-28; assay: Cytotoxicity against human SK-MEL-28 cells after 48 hrs by SRB assay; type: functional; conditions: SK-MEL-28, 48 h
[31] = tested on: MDA-MB-468; assay: Cytotoxicity against human MDA-MB-468 cells assessed as cell growth at 10^-5 M after 48 hrs by SRB assay; type: functional; conditions: MDA-MB-468, 48 h, read-out: Activity
[32] = tested on: NCI-H522; assay: Cytotoxicity against human NCI-H522 cells assessed as cell growth at 10^-5 M after 48 hrs by SRB assay; type: functional; conditions: NCI-H522, 48 h, read-out: Activity
[33] = Cytotoxicity against human SNB19 cells after 48 hrs by SRB assay; type: functional; conditions: SNB-19, 48 h
[34] = molecular target: T1, Albumin; assay: Binding affinity to human serum albumin at 0.25 uM at 303 K by fluorescence microscopic analysis in the presence of Co2+; type: ADME; conditions: isolated protein
[35] = Cytotoxicity against human IGROV1 cells after 48 hrs by SRB assay; type: functional; conditions: IGROV-1, 48 h
[36] = Cytotoxicity against human OVCAR4 cells after 48 hrs by SRB assay; type: functional; conditions: OVCAR-4, 48 h
[37] = tested on: 786-0; assay: Cytotoxicity against human 786-0 cells after 48 hrs by SRB assay; type: functional; conditions: 786-0, 48 h
[38] = Antiproliferative activity against human SNB75 cells at 10'5 M; type: functional, SNB-75
[39] = Cytotoxicity against human SNB75 cells assessed as cell growth at 10^-5 M after 48 hrs by SRB assay; type: functional; conditions: SNB-75, 48 h, read-out: Activity
[40] = tested on: K562; assay: Antiproliferative activity against human K562 cells at 10'5 M; type: functional
[41] = Cytotoxicity against human NCI-ADR-RES cells assessed as cell growth at 10^-5 M after 48 hrs by SRB assay; type: functional; conditions: read-out: Activity
[42] = read-out: LC50 (the source's name)

T1 sequence (P02768 whole entry): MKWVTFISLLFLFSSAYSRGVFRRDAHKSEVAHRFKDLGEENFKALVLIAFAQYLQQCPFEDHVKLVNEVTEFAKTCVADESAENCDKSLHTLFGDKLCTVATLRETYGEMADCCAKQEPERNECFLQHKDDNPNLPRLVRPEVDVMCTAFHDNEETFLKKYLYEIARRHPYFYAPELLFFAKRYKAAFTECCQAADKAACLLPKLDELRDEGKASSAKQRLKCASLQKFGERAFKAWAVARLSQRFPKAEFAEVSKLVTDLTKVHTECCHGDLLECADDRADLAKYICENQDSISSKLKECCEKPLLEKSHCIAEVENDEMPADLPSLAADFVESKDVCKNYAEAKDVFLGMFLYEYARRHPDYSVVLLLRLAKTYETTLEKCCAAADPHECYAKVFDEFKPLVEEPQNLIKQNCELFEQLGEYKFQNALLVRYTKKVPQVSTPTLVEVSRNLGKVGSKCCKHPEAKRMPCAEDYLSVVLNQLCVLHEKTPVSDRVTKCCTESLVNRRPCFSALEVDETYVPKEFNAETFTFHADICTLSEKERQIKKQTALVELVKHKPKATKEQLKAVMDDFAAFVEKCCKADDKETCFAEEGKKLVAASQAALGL

## O=C(/C=C/c1ccccc1)n1c(-c2ccc(Cl)cc2)nc2ccccc21
[1]
  growth at 10 µM: -0.39%
[2]
  growth at 10 µM: -65.4%
[3]
  growth inhibition (GI): 94.92%
[4]
  growth at 10 µM: -52%
[5]
  GI50: 1.39 µM
  TGI: 2.76 µM
[5]; [42]
  CC50: 5.46 µM
[6]
  growth at 10 µM: 41.1%
[7]
  K: 3.5 ×10³ /M
[8]
  GI50: 1.45 µM
  TGI: 5.03 µM
[8]; [42]
  CC50: 27.9 µM
[9]
  growth at 10 µM: -48.4%
[10]
  GI50: 1.18 µM
  TGI: 10 µM
[10]; [42]
  CC50: 31.7 µM
[11]
  growth inhibition (GI): 89.71%
[12]
  growth at 10 µM: 21.9%
[13]
  GI50: 1.53 µM
  TGI: 3.5 µM
[13]; [42]
  CC50: 8.04 µM
[14]
  GI50: 2.57 µM
  TGI: 17.9 µM
[14]; [42]
  CC50: > 100 µM
[15]
  growth at 10 µM: 45%
[16]
  growth inhibition (GI): 80.03%
[17]
  GI50: 1.64 µM
  TGI: 3.12 µM
[17]; [42]
  CC50: 5.93 µM
[18]
  K: 6.27 ×10³ /mol
[19]
  growth at 10 µM: 15.9%
[20]
  K: 3.2 ×10⁴ /mol
[21]
  GI50: 1.52 µM
  TGI: 4.32 µM
[21]; [42]
  CC50: 23.7 µM
[22]
  KSV: 2.03 ×10⁵ L/mol
[23]
  GI50: 1.63 µM
  TGI: 5.74 µM
[23]; [42]
  CC50: 26 µM
[24]
  growth inhibition (GI): 81.42%
[25]
  GI50: 2.72 µM
  TGI: 5.17 µM
[25]; [42]
  CC50: 9.81 µM
[26]
  K: 5.68 ×10³ /mol
[27]
  growth at 10 µM: -48.5%
[28]
  GI50: 0.38 µM
  TGI: 1.88 µM
[28]; [42]
  CC50: > 100 µM
[29]
  growth at 10 µM: -71.5%
[30]
  GI50: 2.1 µM
  TGI: 4.35 µM
[30]; [42]
  CC50: 9.02 µM
[31]
  growth at 10 µM: -6.61%
[32]
  growth at 10 µM: -72.4%
[33]
  GI50: 1.47 µM
  TGI: 2.92 µM
[33]; [42]
  CC50: 5.79 µM
[34]
  K: 4.09 ×10³ /mol
[35]
  GI50: 1.27 µM
  TGI: 2.88 µM
[35]; [42]
  CC50: 6.53 µM
[36]
  GI50: 1.11 µM
  TGI: 2.64 µM
[36]; [42]
  CC50: 6.29 µM
[37]
  GI50: 2.43 µM
  TGI: 5.71 µM
[37]; [42]
  CC50: 18 µM
[38]
  growth inhibition (GI): 81.93%
[39]
  growth at 10 µM: 18.1%
[40]
  growth inhibition (GI): 60.22%
[41]
  growth at 10 µM: 10.8%
